Literature values as cited in patent US11730740B2, “Laureth-4 containing topical formulations” (ARCUTIS BIOTHERAPEUTICS, INC., priority 2020, dated 2023).

Legend:
JAK 1 = JAK 1 (Homo sapiens, UniProt P23458); conditions: statement in words
[1] = 10% adjuvant in propylene glycol; infinite dosing 278 μl/cm^2; PG alone control 1.6±0.4
[2] = 10% w/w surfactant in white petrolatum with 10% salicylic acid and 10% DMSO; 5.0 grams on 6.4×12.7 cm^2 skin; 8 hr

JAK 1, sequence (P23458 whole entry, species assumed): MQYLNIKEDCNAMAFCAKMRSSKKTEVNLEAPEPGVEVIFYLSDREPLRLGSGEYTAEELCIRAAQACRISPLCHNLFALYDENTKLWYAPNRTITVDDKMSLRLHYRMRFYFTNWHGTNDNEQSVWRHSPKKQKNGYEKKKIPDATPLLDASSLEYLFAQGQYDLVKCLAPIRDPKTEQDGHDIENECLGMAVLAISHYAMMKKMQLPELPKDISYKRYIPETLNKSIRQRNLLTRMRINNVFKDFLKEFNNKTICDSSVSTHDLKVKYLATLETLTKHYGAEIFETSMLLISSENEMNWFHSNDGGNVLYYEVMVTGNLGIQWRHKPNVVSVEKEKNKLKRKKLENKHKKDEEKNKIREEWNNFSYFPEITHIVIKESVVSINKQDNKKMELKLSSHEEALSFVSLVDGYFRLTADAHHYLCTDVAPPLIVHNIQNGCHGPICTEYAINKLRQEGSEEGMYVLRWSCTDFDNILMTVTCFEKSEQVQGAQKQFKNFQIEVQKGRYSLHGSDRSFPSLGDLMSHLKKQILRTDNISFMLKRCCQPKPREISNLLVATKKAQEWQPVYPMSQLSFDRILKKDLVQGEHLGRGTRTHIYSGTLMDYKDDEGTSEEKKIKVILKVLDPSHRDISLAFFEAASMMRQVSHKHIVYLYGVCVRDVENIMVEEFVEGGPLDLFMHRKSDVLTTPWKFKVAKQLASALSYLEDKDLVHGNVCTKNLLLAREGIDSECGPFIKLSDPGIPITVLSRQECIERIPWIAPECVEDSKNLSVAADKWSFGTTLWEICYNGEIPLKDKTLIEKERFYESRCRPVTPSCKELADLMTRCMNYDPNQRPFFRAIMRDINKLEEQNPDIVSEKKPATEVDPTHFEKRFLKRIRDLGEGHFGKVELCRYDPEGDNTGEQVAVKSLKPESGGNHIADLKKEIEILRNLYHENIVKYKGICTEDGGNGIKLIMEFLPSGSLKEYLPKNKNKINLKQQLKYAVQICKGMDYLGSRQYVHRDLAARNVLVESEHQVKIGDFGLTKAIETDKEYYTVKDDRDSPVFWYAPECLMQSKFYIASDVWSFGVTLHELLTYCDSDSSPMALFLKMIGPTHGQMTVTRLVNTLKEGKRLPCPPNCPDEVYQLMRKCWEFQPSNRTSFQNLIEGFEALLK

Row | Molecule | naloxone flux [1] | also measured
1 | CCC[C@@H]1C[C@@H](C(=O)N[C@@H]([C@H]2O[C@H](SC)[C@H](OP(=O)(O)O)[C@@H](O)[C@H]2O)[C@H](C)Cl)N(C)C1 [Clindamycin phosphate] |  | solubility in water (without the addition of laureth-4): readily soluble
2 | COc1nsc(NC(=O)N2C[C@H]3C[C@H](N(C)c4ncnc5[nH]ccc45)C[C@H]3C2)n1 [SHR0302, (3 aR,5 S,6aS)—N-(3-methoxyl-1,2,4-thiadiazol-5-yl)-5-(methyl(7H-pyrrolo[2,3-d]pyrimidin-4-yl)amino)hexahydrocyclopenta[c]pyrrole-2(1H)-carboxamide] |  | inhibition of JAK 1 (JAK 1): potent; selectivity for JAK1 over JAK2 (JAK 1): high
3 | CCCCCCCCCC(=O)O [capric acid] | 187.9±67.5 μg/cm^2-hr | 
4 | CCCCCCCCCCCCOCCOCCOCCOCCO [laureth-4, tetraethylene glycol monododecyl ether] | 34.5±8.3 μg/cm^2-hr | percutaneous absorption of salicylic acid [2]: increased significantly
5 | CCCCCCCCCCCC(=O)O [lauric acid] | 235.2 μg/cm^2-hr | 
6 | CCCCCCCCCCCCO [lauryl alcohol] | 45.8 μg/cm^2-hr | 
7 | CC/C=C\C/C=C\C/C=C\CCCCCCCC(=O)O [linolenic acid 18:2, linolenic acid] | 103.0 μg/cm^2-hr | 
8 | CC/C=C\C/C=C\C/C=C\CCCCCCCCO [linolenyl alcohol] | 116.3 μg/cm^2-hr | 
9 | CCCCCCCCC(=O)O [pelargonic acid] | 201.9±65.4 μg/cm^2-hr | 
10 | CC1=C(/C=C/C(C)=C/C=C/C(C)=C/C(=O)O)C(C)(C)CCC1 [tretinoin] |  | solubility of tretinoin in VELTIN Gel (with laureth-4 (3%) and propylene glycol): 0.025%
11 | polyoxyethylene 2 oleyl ether |  | percutaneous absorption of salicylic acid [2]: increased significantly
12 | propylene glycol laurate | 43.8±5.5 μg/cm^2-hr | 
13 | sorbitan monopalmitate |  | percutaneous absorption of salicylic acid [2]: increased significantly
14 | sorbitan trioleate |  | percutaneous absorption of salicylic acid [2]: increased significantly
